{
  "source": "patent US12465592B2",
  "about": "“Structured encapsulated silicon-containing particles” (SISAF LIMITED, priority 2019, dated 2025)",
  "origin": "cited, not measured here",
  "data": [
    {"compound": "Clc1ccc(COC(Cn2ccnc2)c2ccc(Cl)cc2Cl)c(Cl)c1", "note": "(stereo not shown) [Miconazole]", "values": [
      {"measurement": "aqueous solubility", "result": "< 1", "unit": "µg/mL"}
    ]}
  ]
}
